One experiment concerns TMD8 cells. Briefly: BTK cell activity assay (CellTiter Glo). In kind it is cell-based. Conditions: Homo sapiens, Cell Titer Glo, read-out: Relative IC50. How it is done:
1. Cell Culture and Passage
The medium, trypsin and 1×PBS used in the cell passage process were preheated in a 37° C. water bath. The supernatant was aspirated.
1 mL of trypsin was added to rinse, and the rinse solution was aspirated. 1 mL of trypsin was added, respectively, and cells were digested at 37° C. until the cells fell off. 10 mL of culture medium was added and mixed well. The mixture was centrifuged at 1000 rpm for 5 min and the cells were resuspended in 10 mL of culture medium. 0.7 mL of cell suspension was pipetted into a counting cup and counted on ViCell XR to respectively obtain a cell density of 0.327 million/mL. 1.17 mL of cell suspension and culture medium were weighed, respectively, to dilute the cell suspension. According to the microplate layout diagram below, 100 μL of phosphate buffer was added to the peripheral wells of the 384-well microplate, and 40 μL of cell suspension was added to other wells, respectively. The cell plate was then cultured in an incubator.
2. Dosing • (1) Preparation of compound:
A 9 μL dilution of the compound to be assayed was added to a shallow-well plate for Pod (Labcyte, #LP-0200). The shallow-well plate was centrifuged at 2500 rpm for 30 s. • (2) The cell plate was removed from the incubator. • (3) According to the microplate layout diagram below, compounds were serially diluted 3-fold in Pod to obtain 10 concentrations. The diluted compounds were added to the cell plate at 100 nL, respectively, and then the cell plate was returned to the incubator for culture. • 3. At Day 0, 20 μL of CellTiter Glo was added to the plate with DMSO added, and the mixture was shaken in the dark for 10 minutes. The plate was read with Envision. • 4. At Day 5: CTG was added and the plate was read. • (1) After being cultured for 72 h, 20 μL of Cell Titer Glo was added to the cell plate, and the mixture was shaken in the dark for 10 minutes. • (2) The plate was read with Envision.
Assay Results • 1. Average value and standard deviation of 0% inhibition (DMSO well, MAX) and 100% inhibition (day 0, DMSO) in each group were calculated; • 2. […]
Chain of BTK^C481S (Q06187 whole entry C481S): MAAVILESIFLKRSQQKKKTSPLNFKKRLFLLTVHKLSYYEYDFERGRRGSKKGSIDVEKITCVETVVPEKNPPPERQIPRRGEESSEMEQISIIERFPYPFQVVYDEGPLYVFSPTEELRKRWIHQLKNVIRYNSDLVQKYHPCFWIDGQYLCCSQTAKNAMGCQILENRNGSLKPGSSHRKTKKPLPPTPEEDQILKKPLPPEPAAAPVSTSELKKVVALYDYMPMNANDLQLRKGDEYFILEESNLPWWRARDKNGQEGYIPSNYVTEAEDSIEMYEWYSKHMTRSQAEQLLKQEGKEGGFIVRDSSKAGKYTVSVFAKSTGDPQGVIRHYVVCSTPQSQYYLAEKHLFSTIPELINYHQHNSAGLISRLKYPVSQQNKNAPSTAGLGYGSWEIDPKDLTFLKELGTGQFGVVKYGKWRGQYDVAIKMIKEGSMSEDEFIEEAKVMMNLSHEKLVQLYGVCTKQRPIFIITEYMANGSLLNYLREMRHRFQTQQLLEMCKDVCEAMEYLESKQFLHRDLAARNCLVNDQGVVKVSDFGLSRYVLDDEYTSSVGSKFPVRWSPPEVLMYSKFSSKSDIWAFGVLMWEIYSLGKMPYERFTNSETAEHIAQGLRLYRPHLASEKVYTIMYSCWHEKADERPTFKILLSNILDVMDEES
Broadly, the IC50 is the concentration that gives 50% inhibition. For `O=C(c1ccc(Oc2ccccc2)cc1Cl)c1c[nH]c2ncnc(N[C@H]3CO[C@H](CO)CC3(F)F)c12` [Compound 2], the concentration for half-maximal inhibition (IC50) worked out at 269 nM.

`O=C(c1ccc(Oc2ccccc2)cc1Cl)c1c[nH]c2ncnc(N[C@H]3CO[C@H](CO)C[C@@H]3F)c12` [Compound 3]: the IC50 was 217 nM.

Another experiment concerns the target BTK^C481S (Homo sapiens (Human), UniProt Q06187, C481S). As to the kind of experiment: BTK enzyme activity assay. In kind it is biochemical. The following applies: 200 μM ATP; 33P-ATP, filter-binding method. The method, then: The specific assay process of BTK enzyme activity assay is as follows: Buffer: 20 mM 2-[4-(2-hydroxyethyl)-1-piperazinyl]ethanesulfonic acid (Hepes) (pH 7.5), 10 mM magnesium chloride, 1 mM ethylenebis(oxyethylenenitrilo)tetraacetic acid (EGTA), 0.02% polyoxyethylene dodecyl ether (Brij35), 0.02 mg/mL BSA, 0.1 mM sodium vanadate (Na3VO4), 2 mM dithiothreitol (DTT), 1% DMSO, 200 μM adenosine triphosphate (ATP). • 1. The substrate was prepared in freshly prepared reaction buffer; • 2. The required cofactor was added to the above-mentioned substrate solution; • 3. The kinase BTK^C481S was added to the above-mentioned substrate solution and mixed well; • 4. The compound dissolved in DMSO was added to the kinase reaction mixture by Echo550 (Acoustic technology; nanoliter range), and the mixture was incubated at room temperature for 20 minutes; • 5. ^33P-ATP (specific radioactivity of 10 μCi/μL) was added to the reaction mixture to initiate the reaction; • 6. The mixture was incubated at room temperature for 2 hours; • 7. The radioactivity was detected by filter-binding method; • 8. Kinase activity data represented the percentage of remaining kinase activity in the assay sample compared to the vehicle (dimethyl sulfoxide) reaction.
In turn, `O=C(c1ccc(Oc2ccccc2)cc1Cl)c1c[nH]c2ncnc(N[C@H]3CO[C@H](CO)C4CC43)c12` (stereo partly shown) [Compound 1] returned a concentration for half-maximal inhibition (IC50) of 1.7 nM.

In turn, `O=C(c1ccc(Oc2ccccc2)cc1Cl)c1c[nH]c2ncnc(N[C@H]3CO[C@H](CO)CC3(F)F)c12` [Compound 2] yielded a 50% inhibitory concentration (IC50) of 12.5 nM.

As for `O=C(c1ccc(Oc2ccccc2)cc1Cl)c1c[nH]c2ncnc(N[C@H]3CO[C@H](CO)C[C@@H]3F)c12` [Compound 3], the IC50 was found to be 6.7 nM.

Take `N#C[C@@H]1CC[C@@H](Nc2ncnc3[nH]cc(C(=O)c4ccc(Oc5ccccc5)cc4Cl)c23)CO1` [Compound 5]: the IC50 was 10.7 nM.

In the case of `N#CC[C@@H]1CC[C@@H](Nc2ncnc3[nH]cc(C(=O)c4ccc(Oc5ccccc5)cc4Cl)c23)CO1` [Compound 6], the IC50 stood at 6.5 nM.

On to `CO[C@H]1C[C@@H](CO)OC[C@@H]1Nc1ncnc2[nH]cc(C(=O)c3ccc(Oc4ccccc4)cc3Cl)c12` [Compound 7], for which the half-maximal inhibitory concentration (IC50) amounted to 43.6 nM.

`O=C(c1ccc(Oc2ccccc2)cc1Cl)c1c[nH]c2ncnc(N[C@H]3CO[C@H](CO)C[C@H]3OCCO)c12` [Compound 8] had a half-inhibitory concentration (IC50) of 8.9 nM.

For the compound `CO[C@@H]1C[C@@H](CO)OC[C@@H]1Nc1ncnc2[nH]cc(C(=O)c3ccc(Oc4ccccc4)cc3C)c12` [Compound 9], the IC50 was 15.2 nM.

The compound `CO[C@@H]1C[C@@H](CO)OC[C@@H]1Nc1ncnc2[nH]cc(C(=O)c3ccc(Oc4ccccc4)cc3F)c12` [Compound 10] showed an IC50 of 14.9 nM.

For the compound `CO[C@@H]1C[C@@H](CO)OC[C@@H]1Nc1ncnc2[nH]cc(C(=O)c3ccc(Oc4ccccc4F)cc3Cl)c12` [Compound 12], the half-maximal inhibitory concentration (IC50) stood at 39.8 nM.

With `[2H]C([2H])([2H])O[C@@H]1C[C@@H](CO)OC[C@@H]1Nc1ncnc2[nH]cc(C(=O)c3ccc(Oc4ccccc4)cc3Cl)c12` [Compound 13], the IC50 was determined as 15.1 nM.
